Measurements published in ChEMBL document CHEMBL1201862, “PubChem BioAssay data set” (2004).
Where “and” joins values, the source holds several entries; their conditions need not be identical. Equal values may be shown once.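 Five compound concentrations were applied to cells in 96-well plates for 48 hours; endpoints were derived by simple linear interpolation of the resulting dose-response curve. GI50 is the concentration that inhibits growth by half.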 Calls of active or inactive are those of the source. Cut-off read from the data, not from the text of the source: active = GI50 up to about 1.1 µM and inactive = higher.

What was measured:
Experiment in all cases: DTP human tumour cell line panel, 48 h
DMS-273 = test system: DMS-273
RXF 631 = test system: RXF 631
LXFL 529 = test system: LXFL 529
SNB-78 = test system: SNB-78
M19-MEL = test system: M19-MEL
HOP-18 = test system: HOP-18
XF498 = test system: XF498
DMS-114 = test system: DMS-114
KM-20L2 = test system: KM-20L2

| SMILES | GI50 (DMS-273) | GI50 (RXF 631) | GI50 (LXFL 529) | GI50 (SNB-78) | GI50 (M19-MEL) | GI50 (HOP-18) | GI50 (XF498) | GI50 (DMS-114) | GI50 (KM-20L2) |
| --- | --- | --- | --- | --- | --- | --- | --- | --- | --- |
| O=C(NC(=O)c1c(F)cccc1F)Nc1cccc(Oc2ncc(Cl)cn2)c1 | 2.45 µM (inactive) | > 100 µM (inactive) | > 91 µM (inactive) | > 100 µM (inactive) | > 100 µM (inactive) | > 100 µM (inactive) | 19.7 µM (inactive) |  |  |
| COC(=O)CCC1CCc2c(OC)ccc(OC)c2C1=O (configuration not stated) | > 100 µM (inactive) |  | > 100 µM (inactive) | > 100 µM (inactive) |  |  |  | > 100 µM (inactive) | > 100 µM (inactive) |
| CSC1CC2C(CC1(C)O)C2(C)C (configuration not stated) | > 100 µM (inactive) and 69.3 µM (inactive) |  | > 100 µM (inactive) | > 100 µM (inactive) | > 100 µM (inactive) |  |  |  | > 100 µM (inactive) and 74.8 µM (inactive) |
| Nc1ccc(Sc2c3ccccc3nc3ccccc23)cc1 | 14.1 µM (inactive) |  | 7.96 µM (inactive) | 22.4 µM (inactive) | 20.5 µM (inactive) | 22.3 µM (inactive) | 14.4 µM (inactive) | 18.2 µM (inactive) | 16.7 µM (inactive) |
| Cc1nc2ccccc2c(=O)n1NC(=S)Nc1cccc(Cl)c1 | > 100 µM (inactive) |  | > 100 µM (inactive) |  | > 100 µM (inactive) | > 100 µM (inactive) |  |  |  |
| Cc1ccc(NCCN(C)C)c2c(=O)c3cc(O)ccc3sc12 | 1.05 µM (active) |  | 8.18 µM (inactive) | 15.6 µM (inactive) | 10.4 µM (inactive) | 3.64 µM (inactive) | 4.12 µM (inactive) | 11.7 µM (inactive) | 8.87 µM (inactive) |
| [N-]=[N+]=NC1C2CC3CC(C2)CC1C3 (configuration not stated) | > 100 µM (inactive) | > 100 µM (inactive) | > 100 µM (inactive) | > 100 µM (inactive) | > 100 µM (inactive) | > 100 µM (inactive) |  | > 100 µM (inactive) | > 100 µM (inactive) |
| O=C(Nc1ccc(S(=O)(=O)N[C@@H](C(=O)O)c2ccccc2)cc1)c1ccc(F)cc1 | > 100 µM (inactive) |  | > 100 µM (inactive) |  | > 100 µM (inactive) | > 100 µM (inactive) | 67.5 µM (inactive) |  | > 100 µM (inactive) |
| COc1cc([C@@H]2c3cc4c(cc3[C@@H](NC(=O)c3cccc([N+](=O)[O-])c3)C3COC(=O)[C@@H]32)OCO4)cc(OC)c1O (some centres not stated) | 0.149 µM (active) | 1.31 µM (inactive) | 10.3 µM (inactive) | 4.73 µM (inactive) | 2.55 µM (inactive) |  |  | 0.548 µM (active) | 2.82 µM (inactive) |
| O/N=C/c1cc2c(cc1Br)OCO2 | > 100 µM (inactive) | > 100 µM (inactive) | > 100 µM (inactive) | > 100 µM (inactive) | > 100 µM (inactive) | > 100 µM (inactive) |  |  | > 100 µM (inactive) |
| Cc1ccccc1C(C#N)/C(=N/NC(N)=S)C(=O)Nc1c(C)cccc1C (configuration not stated) |  | > 100 µM (inactive) | > 100 µM (inactive) | > 100 µM (inactive) | 80 µM (inactive) | > 100 µM (inactive) | 32.8 µM (inactive) | 10.4 µM (inactive) | > 100 µM (inactive) |
| C[C@]12CCC(=O)C=C1CC[C@@H]1C2CC[C@@]2(C)C1CC[C@@H]2OC(=O)C12OC1CCC2=O (some centres not stated) | 15.5 µM (inactive) |  | 14.8 µM (inactive) | 16.8 µM (inactive) | 16.7 µM (inactive) | 17.4 µM (inactive) | 13.9 µM (inactive) | 17.7 µM (inactive) | 18.7 µM (inactive) |
| CC(c1ccccc1)N1CC(C)(c2ccccc2)N(O)C(c2ccccc2)C1C (configuration not stated) | 7.93 µM (inactive) | 12.6 µM (inactive) | 9.06 µM (inactive) | 15.1 µM (inactive) | > 10 µM (inactive) | 17.7 µM (inactive) |  | 5.33 µM (inactive) | 4.39 µM (inactive) |
| Clc1ccc(OCCSCCCCCCCCCCSCCOc2ccc(Cl)cc2)cc1 | > 100 µM (inactive) |  |  | > 100 µM (inactive) | > 100 µM (inactive) | > 100 µM (inactive) |  | > 100 µM (inactive) | > 100 µM (inactive) |
| CN1CCCC2[C@@H]3CCC4=C(O)C(=O)CC[C@]4(C)C3CC[C@@]21C (some centres not stated) | > 100 µM (inactive) | > 100 µM (inactive) | > 100 µM (inactive) |  |  | > 100 µM (inactive) | > 100 µM (inactive) | > 100 µM (inactive) | > 100 µM (inactive) |
| CC(C)(C)c1nc2c(o1)C(=O)c1ccccc1C2=O | 5.08 µM (inactive) | 5.92 µM (inactive) | 6.44 µM (inactive) | 11.5 µM (inactive) | 1.25 µM (inactive) | 7.19 µM (inactive) | 2.67 µM (inactive) | 2.23 µM (inactive) | 22.1 µM (inactive) |
| COC(=O)C(C(=O)C(=O)Nc1cccc(O)c1)c1nc2ccc(Cl)cc2nc1O (configuration not stated) |  | > 100 µM (inactive) | > 100 µM (inactive) | > 100 µM (inactive) | > 100 µM (inactive) | 98.9 µM (inactive) |  | > 100 µM (inactive) | > 100 µM (inactive) |
| O=S(=O)(O)C1=C2Sc3ccccc3N=C2c2ccccc2C1 | 15.5 µM (inactive) | 16 µM (inactive) | 12.2 µM (inactive) | 17.8 µM (inactive) |  | 12.4 µM (inactive) | 17.7 µM (inactive) | 10.3 µM (inactive) | 18.4 µM (inactive) |
| c1ccc(C2[C@@H]3CCCc4ccccc4C3=NN2c2ccccc2)cc1 (some centres not stated) |  |  | 53.2 µM (inactive) | > 100 µM (inactive) | > 100 µM (inactive) |  | 28.2 µM (inactive) | > 100 µM (inactive) | > 100 µM (inactive) |
